Patent publication EP0172581B1, “Disaccharide derivatives” (DAIICHI SEIYAKU CO., LTD., priority 1984, dated 1986)
Where two headings read alike, the source gives them in different places.

What was measured:
[1] = tested on: isolated murine lymphocytes (splenocytes); assay: Test on mitogenicity ([³H]-labeled thymidine uptake); format: cell-based, BALB/c nu/nu mice; settings: T/C, 48 hours incubation
Method: Spleen of BALB/c nu/nu mice (male; 8-week old) was minced, and lymphocytes collected from the minced spleen were incubated with graded doses of test compounds in RPMI 1640 medium without fetal bovine serum at 37°C at a concentration of 1 x 10⁵ to 1 x 10⁶ lymphocytes per mℓ for 48 hours. Twenty-four hours before the completion of the incubation, [³H]-labeled thymidine (manufactured by New England Nuclear) was added to the culture. After the completion of the incubation, cells were collected on glass micro-fiber paper and dried, and the radioactivity of [³H]-labeled thymidine incorporated into the cells was measured. The ratio of thymidine uptake in the test culture to which the test compound had been added to that in the respective control culture was determined as a stimulation index. The higher the stimulation index, the higher the mitogenicity.

Japanese white rabbits = format: in vivo; settings: for Number of Necrosed Animals/Number of Tested Animals: 100 µg LPS intravenously 20 hours later
Method: The local Shwartzman reaction test (Test I) is examined to determine the phenomenon of necrosis, at the site where a test compound was injected, induced by intravenous injection of lipopolysaccharide (hereinafter referred to as LPS) after 20 hours from intracutaneous injection of the test compound to test animals, preferably in rabbits.
The test on Shwartzman reaction specific to endotoxin was carried out as follows using Japanese white rabbits (female, weighing around 3 kg). That is, Japanese domestic white rabbits were intracutaneously injected with the test compound. Twenty hours later, 100 µg of LPS extracted from Salmonella minnesota R595, Re-mutant was intravenously injected to each rabbit. The Shwartzman reaction-induction activity was expressed in terms of number of animals that suffered from hemorrhagic necrosis at the site that had been prepared by intracutaneous injection of the test compound.

[2] = tested on: Japanese domestic white rabbits; assay: Test II - test on pyrogenicity (Japanese Pharmacopoeia); format: in vivo; settings: for Number of Febrile Animals/Number of Tested Animals: 0.1 µg/kg intravenously, febrile = temperature increase of 0.6°C or more
Method: The pyrogenicity of the compounds of this invention was determined in terms of body temperature increase in rabbits after intravenous injection of the test compound in accordance with the test method of pyrogenicity defined in Japanese Pharmacopoeia. That is, the rectal temperatures of Japanese domestic white rabbits (body weight: 2 to 2.5 kg) were measured 3 times at one-hour intervals. When the temperature in the second and third measurements were substantially equal, the third temperature was taken as a reference temperature. Within 15 minutes after the third measurement, the test compound dissolved in pyrogen-free distilled water was injected in the ear vein, and the rectal temperature was measured 3 times at one-hour intervals after injection. A difference between the reference temperature and the maximum temperature was taken as an increase of body temperature, and the pyrogenicity of the test compound was expressed by the number of febrile animals showing a temperature increase of 0.6°C or more.

[3] = tested on: clotting enzyme of Tachypleus tridentatus (horseshoe crab) amoebocytes; assay: Test III - Limulus test (toxicolor test); format: biochemical; settings: activity of 1 mg test compound converted to amount of LPS from E. coli 0111:B4
Source text: Also, the compounds of this invention are very useful as a standard reagent for determination of endotoxin in the samples to be tested, and their activity has been confirmed by the local Shwartzman reaction test (Test I in Test Example 3), the pyrogenicity test (Test II in Test Example 3), and the activation of clotting enzyme of Tachypleus tridentatus (horseshoe crab) amoebocytes, i.e., Limulus test (Test III in Test Example 3).
The pyrogenicity of the compounds of this invention was also determined by Limulus test (toxicolor test). That is, the test compound was dissolved in a pyrogen-free 0.1% (vol/vol) triethylamine aqueous solution to a concentration of 2 mg/mℓ and diluted with pyrogen-free distilled water to a concentration of 4 X 10⁻¹ mg/mℓ. Subsequently, dilute aqueous solutions having concentrations of from 4 X 10⁻¹ mg/mℓ to 4 × 10⁻¹⁰ mg/mℓ were prepared by serial 10-fold dilution. […] Thereafter, 0.5 mℓ of sodium nitrite was added to the culture, and after stirring 0.1 mℓ each of ammonium sulfamate and N-(1-naphthyl)-ethylenediamine were added thereto to develop a color, and absorbance at a wavelength of 545 nm was determined. […]

Row | Structure (SMILES) | Stimulation Index ±S.E. ([1]; 0.01 µg/mℓ test compound added) | Stimulation Index ±S.E. ([1]; 0.1 µg/mℓ test compound added) | Stimulation Index ±S.E. ([1]; 1 µg/mℓ test compound added) | Number of Necrosed Animals/Number of Tested Animals (Japanese white rabbits; 20 µg/site intracutaneously) | Number of Febrile Animals/Number of Tested Animals [2] | Converted LPS Amount [3] | Number of Necrosed Animals/Number of Tested Animals (Japanese white rabbits; 80 µg/site intracutaneously) | reaction in Test I (local Shwartzman reaction) (Japanese white rabbits; summary in words) | reaction in Test II (pyrogenicity) ([2]; summary in words)
1 | CCCCCCCCCCCCCC(=O)O[C@H](CCCCCCCCCCC)CC(=O)O[C@@H]1[C@@H](NC(=O)C[C@@H](CCCCCCCCCCC)OC(=O)CCCCCCCCCCC)[C@H](OC[C@H]2O[C@H](OP(=O)(O)O)[C@H](NC(=O)C[C@H](O)CCCCCCCCCCC)[C@@H](OC(=O)C[C@H](O)CCCCCCCCCCC)[C@@H]2O)O[C@H](CO)[C@H]1OP(=O)(O)O [Compound of Present Invention, 6-O-{2-Deoxy-2-[(R)-3-dodecanoyloxytetradecanoylamino]-3-O-[(R)-3-tetradecanoyloxytetradecanoyl]-4-O-phosphono-β-D-glucopyranosyl}-2-deoxy-2-[(R)-3-hydroxytetradecanoylamino]-3-O-[(R)-3-hydroxytetradecanoyl]-1-O-phosphono-α-D-glucopyranose] | 4.06 ± 0.35 | 9.05 ± 0.70 | 11.76 ± 0.13 | 2/3 | 3/4 | 2.38 mg | – | – | –
2 | CCCCCCCCCCC[C@@H](O)CC(=O)N[C@H]1[C@H](OC[C@H]2O[C@H](OP(=O)(O)O)[C@H](NC(=O)C[C@H](O)CCCCCCCCCCC)[C@@H](OC(=O)C[C@H](O)CCCCCCCCCCC)[C@@H]2O)O[C@H](CO)[C@@H](OP(=O)(O)O)[C@@H]1OC(=O)C[C@H](O)CCCCCCCCCCC [Control Compound 1, 6-O-{2-Deoxy-2-[(R)-3-hydroxytetradecanoylamino]-3-O-[(R)-3-hydroxytetradecanoyl]-4-O-phosphono-β-D-glucopyranosyl}-2-deoxy-2-[(R)-3-hydroxytetradecanoylamino]-3-O-[(R)-3-hydroxytetradecanoyl]-1-O-phosphono-α-D-glucopyranose] | – | – | – | – | 0/3 | 1.34 mg | 0/3 | negative | negative
